Values belong to the compound of their own block, whether it stands above or below them.
Tested on: 377384-186-R-J1-PDC complex spheroid viability
Assay: Anticancer human tumor 377384-186-R-J1-PDC patient-derived pancreatic carcinoma cell line growth inhibition [RAS]
Conditions: for IC50: curve of first compound; for viability, T/C: stronger effect = lower value
Procedure, shortened: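 Multi-cell-type spheroids: tumor cells plus HUVEC endothelial cells and mesenchymal stem cells. RAS-pathway inhibitors were combined with targeted agents, each dosed in half-log steps down from clinical Cmax, or from 10 microM when Cmax was unknown.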

[1] = second compound 0.00316 µM, first compound 0.000949 µM
[2] = second compound 0.00316 µM, first compound 0.003 µM
[3] = second compound 0.00316 µM, first compound 0.00949 µM
[4] = second compound 0.00316 µM, first compound 0.03 µM
[5] = second compound 0.00316 µM, first compound 0.0949 µM
[6] = second compound 0.00316 µM, first compound 0.3 µM
[7] = second compound 0.01 µM, first compound 0.000949 µM
[8] = second compound 0.01 µM, first compound 0.003 µM
[9] = second compound 0.01 µM, first compound 0.00949 µM
[10] = second compound 0.01 µM, first compound 0.03 µM
[11] = second compound 0.01 µM, first compound 0.0949 µM
[12] = second compound 0.01 µM, first compound 0.3 µM
[13] = second compound 0.0316 µM, first compound 0.000949 µM
[14] = second compound 0.0316 µM, first compound 0.003 µM
[15] = second compound 0.0316 µM, first compound 0.00949 µM
[16] = second compound 0.0316 µM, first compound 0.03 µM
[17] = second compound 0.0316 µM, first compound 0.0949 µM
[18] = second compound 0.0316 µM, first compound 0.3 µM
[19] = second compound 0.1 µM, first compound 0.000949 µM
[20] = second compound 0.1 µM, first compound 0.003 µM
[21] = second compound 0.1 µM, first compound 0.00949 µM
[22] = second compound 0.1 µM, first compound 0.03 µM
[23] = second compound 0.1 µM, first compound 0.0949 µM
[24] = second compound 0.1 µM, first compound 0.3 µM
[25] = second compound 0.316 µM, first compound 0.000949 µM
[26] = second compound 0.316 µM, first compound 0.003 µM
[27] = second compound 0.316 µM, first compound 0.00949 µM
[28] = second compound 0.316 µM, first compound 0.03 µM
[29] = second compound 0.316 µM, first compound 0.0949 µM
[30] = second compound 0.316 µM, first compound 0.3 µM
[31] = second compound 1 µM, first compound 0.000949 µM
[32] = second compound 1 µM, first compound 0.003 µM
[33] = second compound 1 µM, first compound 0.00949 µM
[34] = second compound 1 µM, first compound 0.03 µM
[35] = second compound 1 µM, first compound 0.0949 µM
[36] = second compound 1 µM, first compound 0.3 µM
[37] = second compound 0.000949 µM, first compound 0.00316 µM
[38] = second compound 0.000949 µM, first compound 0.01 µM
[39] = second compound 0.000949 µM, first compound 0.0316 µM
[40] = second compound 0.000949 µM, first compound 0.1 µM
[41] = second compound 0.000949 µM, first compound 0.316 µM
[42] = second compound 0.000949 µM, first compound 1 µM
[43] = second compound 0.003 µM, first compound 0.00316 µM
[44] = second compound 0.003 µM, first compound 0.01 µM
[45] = second compound 0.003 µM, first compound 0.0316 µM
[46] = second compound 0.003 µM, first compound 0.1 µM
[47] = second compound 0.003 µM, first compound 0.316 µM
[48] = second compound 0.003 µM, first compound 1 µM
[49] = second compound 0.00949 µM, first compound 0.00316 µM
[50] = second compound 0.00949 µM, first compound 0.01 µM
[51] = second compound 0.00949 µM, first compound 0.0316 µM
[52] = second compound 0.00949 µM, first compound 0.1 µM
[53] = second compound 0.00949 µM, first compound 0.316 µM
[54] = second compound 0.00949 µM, first compound 1 µM
[55] = second compound 0.03 µM, first compound 0.00316 µM
[56] = second compound 0.03 µM, first compound 0.01 µM
[57] = second compound 0.03 µM, first compound 0.0316 µM
[58] = second compound 0.03 µM, first compound 0.1 µM
[59] = second compound 0.03 µM, first compound 0.316 µM
[60] = second compound 0.03 µM, first compound 1 µM
[61] = second compound 0.0949 µM, first compound 0.00316 µM
[62] = second compound 0.0949 µM, first compound 0.01 µM
[63] = second compound 0.0949 µM, first compound 0.0316 µM
[64] = second compound 0.0949 µM, first compound 0.1 µM
[65] = second compound 0.0949 µM, first compound 0.316 µM
[66] = second compound 0.0949 µM, first compound 1 µM
[67] = second compound 0.3 µM, first compound 0.00316 µM
[68] = second compound 0.3 µM, first compound 0.01 µM
[69] = second compound 0.3 µM, first compound 0.0316 µM
[70] = second compound 0.3 µM, first compound 0.1 µM
[71] = second compound 0.3 µM, first compound 0.316 µM
[72] = second compound 0.3 µM, first compound 1 µM
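Also: spheroids exposed to compounds for seven days before readout.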

- IC50 (second compound 0.00316 µM): 2.98 nM
- IC50 (second compound 0.01 µM): 4.06 nM
- IC50 (second compound 0.0316 µM): 4.22 nM
- IC50 (second compound 0.1 µM): 2.65 nM
- IC50 (second compound 0.316 µM): 3.18 nM
- IC50 (second compound 1 µM): 3.33 nM
Compound: CC1(C)CCC(Nc2ncc(C(F)(F)F)c(-c3c[nH]c4c(P(C)(C)=O)c(C#N)ccc34)n2)CN1 (stereo not drawn) + C=CC(=O)N1CCN(c2nc(OCC3CCCN3C)nc3c(F)c(-c4nc(N)cc(C)c4C(F)(F)F)c(Cl)cc23)C(C)C1
- viability, T/C [1]: 83.3%
- viability, T/C [2]: 49.5%
- viability, T/C [3]: 27.8%
- viability, T/C [4]: 15.9%
- viability, T/C [5]: 14.4%
- viability, T/C [6]: 13.2%
- viability, T/C [7]: 89%
- viability, T/C [8]: 57.6%
- viability, T/C [9]: 28.6%
- viability, T/C [10]: 17%
- viability, T/C [11]: 13.9%
- viability, T/C [12]: 14.7%
- viability, T/C [13]: 79.1%
- viability, T/C [14]: 60.1%
- viability, T/C [15]: 26%
- viability, T/C [16]: 18.8%
- viability, T/C [17]: 14.8%
- viability, T/C [18]: 15%
- viability, T/C [19]: 74.6%
- viability, T/C [20]: 46.9%
- viability, T/C [21]: 27.7%
- viability, T/C [22]: 17.5%
- viability, T/C [23]: 14.5%
- viability, T/C [24]: 12.5%
- viability, T/C [25]: 76.1%
- viability, T/C [26]: 51.3%
- viability, T/C [27]: 26.7%
- viability, T/C [28]: 16.5%
- viability, T/C [29]: 13.6%
- viability, T/C [30]: 13.2%
- viability, T/C [31]: 78.7%
- viability, T/C [32]: 52.6%
- viability, T/C [33]: 25%
- viability, T/C [34]: 17.4%
- viability, T/C [35]: 16%
- viability, T/C [36]: 12.5%

- IC50 (second compound 0.00316 µM): 1.55 nM
- IC50 (second compound 0.01 µM): 1.4 nM
- IC50 (second compound 0.0316 µM): 1.41 nM
- IC50 (second compound 0.1 µM): 1.24 nM
- IC50 (second compound 0.316 µM): 1.38 nM
- IC50 (second compound 1 µM): 1.18 nM
Compound: CCc1c2c(nc3ccc(O)cc13)-c1cc3c(c(=O)n1C2)COC(=O)[C@]3(O)CC + C=CC(=O)N1CCN(c2nc(OCC3CCCN3C)nc3c(F)c(-c4nc(N)cc(C)c4C(F)(F)F)c(Cl)cc23)C(C)C1
- viability, T/C [1]: 62.2%
- viability, T/C [2]: 33.5%
- viability, T/C [3]: 14.6%
- viability, T/C [4]: 6.38%
- viability, T/C [5]: 2.5%
- viability, T/C [6]: 1.05%
- viability, T/C [7]: 59%
- viability, T/C [8]: 31.9%
- viability, T/C [9]: 18.1%
- viability, T/C [10]: 5.58%
- viability, T/C [11]: 2.2%
- viability, T/C [12]: 1.1%
- viability, T/C [13]: 61%
- viability, T/C [14]: 28.6%
- viability, T/C [15]: 14%
- viability, T/C [16]: 6.21%
- viability, T/C [17]: 2.11%
- viability, T/C [18]: 1.21%
- viability, T/C [19]: 55.5%
- viability, T/C [20]: 32.2%
- viability, T/C [21]: 15.7%
- viability, T/C [22]: 4.22%
- viability, T/C [23]: 2.88%
- viability, T/C [24]: 0.95%
- viability, T/C [25]: 57.9%
- viability, T/C [26]: 33.1%
- viability, T/C [27]: 17.6%
- viability, T/C [28]: 6.72%
- viability, T/C [29]: 2.76%
- viability, T/C [30]: 1%
- viability, T/C [31]: 53.6%
- viability, T/C [32]: 33.9%
- viability, T/C [33]: 18.9%
- viability, T/C [34]: 7.03%
- viability, T/C [35]: 2.97%
- viability, T/C [36]: 1.13%

- IC50 (second compound 0.000949 µM): < 3.16 nM
- IC50 (second compound 0.003 µM): < 3.16 nM
- IC50 (second compound 0.00949 µM): < 3.16 nM
- IC50 (second compound 0.03 µM): < 3.16 nM
- IC50 (second compound 0.0949 µM): < 3.16 nM
- IC50 (second compound 0.3 µM): < 3.16 nM
Compound: C=CC(=O)Nc1cc(Nc2nccc(-c3cn(C)c4ccccc34)n2)c(OC)cc1N(C)CCN(C)C + CCn1c(-c2cc(N3CCN(C)CC3)cnc2C(C)OC)c2c3cc(ccc31)-c1csc(n1)CC(NC(=O)C1CC1C)C(=O)N1CCCC(N1)C(=O)OCC(C)(C)C2
- viability, T/C [37]: 30%
- viability, T/C [38]: 45%
- viability, T/C [39]: 32.3%
- viability, T/C [40]: 27.5%
- viability, T/C [41]: 12.1%
- viability, T/C [42]: 4.35%
- viability, T/C [43]: 17.5%
- viability, T/C [44]: 17.3%
- viability, T/C [45]: 11.2%
- viability, T/C [46]: 4.88%
- viability, T/C [47]: 2.22%
- viability, T/C [48]: 1.8%
- viability, T/C [49]: 4.04%
- viability, T/C [50]: 11%
- viability, T/C [51]: 3.16%
- viability, T/C [52]: 3.12%
- viability, T/C [53]: 1.55%
- viability, T/C [54]: 1.78%
- viability, T/C [55]: 2.43%
- viability, T/C [56]: 1.94%
- viability, T/C [57]: 1.75%
- viability, T/C [58]: 2.15%
- viability, T/C [59]: 2.02%
- viability, T/C [60]: 1.52%
- viability, T/C [61]: 2.3%
- viability, T/C [62]: 1.82%
- viability, T/C [63]: 1.99%
- viability, T/C [64]: 2.1%
- viability, T/C [65]: 1.5%
- viability, T/C [66]: 0.91%
- viability, T/C [67]: 2.2%
- viability, T/C [68]: 1.68%
- viability, T/C [69]: 1.82%
- viability, T/C [70]: 1.46%
- viability, T/C [71]: 1.28%
- viability, T/C [72]: 0.91%

- IC50 (second compound 0.000949 µM): < 3.16 nM
- IC50 (second compound 0.003 µM): < 3.16 nM
- IC50 (second compound 0.00949 µM): < 3.16 nM
- IC50 (second compound 0.03 µM): < 3.16 nM
- IC50 (second compound 0.0949 µM): < 3.16 nM
- IC50 (second compound 0.3 µM): < 3.16 nM
Compound: O=C(c1ccc(F)c(F)c1Nc1ccc(I)cc1F)N1CC(O)([C@@H]2CCCCN2)C1 + CCn1c(-c2cc(N3CCN(C)CC3)cnc2C(C)OC)c2c3cc(ccc31)-c1csc(n1)CC(NC(=O)C1CC1C)C(=O)N1CCCC(N1)C(=O)OCC(C)(C)C2
- viability, T/C [37]: 40.6%
- viability, T/C [38]: 28.1%
- viability, T/C [39]: 9.77%
- viability, T/C [40]: 2.04%
- viability, T/C [41]: 0.28%
- viability, T/C [42]: 0.8%
- viability, T/C [43]: 16.4%
- viability, T/C [44]: 4.75%
- viability, T/C [45]: 3.32%
- viability, T/C [46]: 1.15%
- viability, T/C [47]: 0.17%
- viability, T/C [48]: 0.13%
- viability, T/C [49]: 3.22%
- viability, T/C [50]: 2.06%
- viability, T/C [51]: 1.32%
- viability, T/C [52]: 0.24%
- viability, T/C [53]: 0.08%
- viability, T/C [54]: 0.13%
- viability, T/C [55]: 2.61%
- viability, T/C [56]: 1.37%
- viability, T/C [57]: 0.71%
- viability, T/C [58]: 0.07%
- viability, T/C [59]: 0.12%
- viability, T/C [60]: 0.09%
- viability, T/C [61]: 1.11%
- viability, T/C [62]: 0.96%
- viability, T/C [63]: 0.28%
- viability, T/C [64]: 0.12%
- viability, T/C [65]: 0.15%
- viability, T/C [66]: 0.18%
- viability, T/C [67]: 1.01%
- viability, T/C [68]: 1.34%
- viability, T/C [69]: 0.16%
- viability, T/C [70]: 0.2%
- viability, T/C [71]: 0.28%
- viability, T/C [72]: 0.18%
